Earlier results on four compounds are cited in patent US20090215892A1, “Octanol Formulations and Methods of Treatment Using the Same” (priority 2005, published 2009).

The subject of one data set is mice. The settings on record: tested orally in mice.
The test system of data set [1] is essential tremor. The following applies: twelve patients.
For data set [2] the following is noted: ordinary conditions of use and storage.
Data set [3] has as its system essential tremor. The following applies: lactose capsule form.
In data set [4] the test system is hereditary essential tremor. The settings on record: patients with hereditary essential tremor.

`CCCCCCCCO` [Example 1-octanol, 1-octanol]: the “solubility in water” value was “slightly soluble” and the “Solubility in Water at 40° C. (Wt %)” value is 0.065 Wt %. In addition, the “toxicity LD5O” value with mice was 1790 mg/kg. Besides, in the data set with essential tremor [1] (1 mg/kg 1-octanol, no improvement in placebo group (Bushara 2002)), the “duration of reduction of peak tremor amplitude versus baseline” value was “up to 2 hours”. Further, the “change of tremor amplitude frequency” value in the data set on essential tremor [1] (single oral dose of 1 mg/kg, anhydrous lactose coated capsule (Bushara 2004)) is “decrease”. Besides, the “stability” value in data set [2] was “stable”. Moreover, in the data set on essential tremor [3] (single oral doses up to 64 mg/kg), the side-effect noted entry is “unusual taste”. For the same compound, the tolerated dose entry in the data set with essential tremor [3] (single oral doses, patients with essential tremor) was “up to 64 mg/kg”.

Take `CCCCCCC(C)O` (centres unmarked) [Example 2-octanol, 2-octanol]: the “Solubility in Water at 40° C. (Wt %)” value is listed as 0.089 Wt %.

As to `CCCCC(O)CCC` (centres unmarked) [Example 4-octanol, 4-octanol], the “Solubility in Water at 40° C. (Wt %)” value is 0.095 Wt %.

With `CCO` [ethanol], in data set [4], the “patients in whom treatment was effective” value is 50%.
